Measured values taken from paper PMC11342128, “Gold(I) and gold(III) carbene complexes from the marine betaine norzooanemonin: inhibition of thioredoxin reductase, antiproliferative and antimicrobial activity” (RSC Medicinal Chemistry, 2024).
Where “and” joins values, the source holds several entries; their conditions need not be identical. Equal entries are not always repeated.

Experiments:
[1] = test system: Enterococcus faecium DSM20477; assay: Antibacterial activity (MIC, curve fitting); assay type: cell-based; conditions: for MIC, E. faecium: Table S12, ± standard error of the mean; for MIC, E.f.: Table 2, Enterococcus faecium DSM20477, 18 h, 37 °C
Description: (§1) The antibacterial activity of all gold complexes was assessed against six pathogenic bacterial strains, including two Gram-positive species, i.e. Enterococcus faecium and methicillin-resistant Staphylococcus aureus (MRSA), and four Gram-negative species, i.e. Acinetobacter baumannii, Escherichia coli, Klebsiella pneumoniae, and Pseudomonas aeruginosa. Minimum inhibitory concentrations (MICs) were determined using a curve-fitting technique.
(§2) S2.1. Antibacterial Studies
(§3) Bacterial cultures were prepared by overnight aerobic incubation at 37 °C. Gram-negative strains were cultivated in Müller Hinton broth supplemented with 1% glucose at pH 7.2, while Gram-positive strains were grown in Trypticase soy yeast extract medium (TSY) with a composition of 30 g/l trypticase soy broth, 3 g/l yeast extract, and pH 7.2. The cultures were adjusted to an OD600 of 0.001, resulting in a final starting OD600 of 0.0005 for the subsequent tests. For testing, 25 μL of the prepared culture was combined with 25 μL of serially diluted test compounds in 384 well plates, following established protocols for different strains. Screening was performed at compound concentrations of 0.5, 5, and 50 µM, and for selected compounds, growth inhibition curves were recorded using DMSO stock solutions […]
(§4) Positive control compounds, namely linezolid (for MRSA strains), ciprofloxacin (for E. faecium and E. coli), and amikacin (for P. aeruginosa), were included. The maximum DMSO concentration in the assay […]
(§5) After an 18-hour incubation at 37 °C under moist conditions, the optical density at 600 nm was measured using a Fusion Universal Microplate Analyser (Perkin–Elmer, Waltham, USA). The minimum inhibitory concentration (MIC) values, representing the […]
(§6) fitting with Sigma Plot. The bacterial strains used included Gram-negative strains: Escherichia coli (DSM 1116), A. baumannii (DSM30007), K. pneumoniae (DSM111678), and Pseudomonas aeruginosa PA7 (DSM 24068); and Gram-positive strains: E. faecium (DSM20477) and Staphylococcus aureus MRSA

[2] = test system: Pseudomonas aeruginosa DSM 24068; assay: Antibacterial activity (MIC, curve fitting); assay type: cell-based; conditions: for MIC, P. aeruginosa: Table S12, ± standard error of the mean; for MIC, P.a.: Table 2, Pseudomonas aeruginosa DSM 24068, 18 h, 37 °C
Description: as §1, §2, §3, §4, §5, §6

[3] = test system: Escherichia coli DSM 1116; assay: Antibacterial activity (MIC, curve fitting); assay type: cell-based; conditions: for MIC, E. coli: Table S12, ± standard error of the mean; for MIC, E.c.: Table 2, Escherichia coli DSM 1116, 18 h, 37 °C
Description: as §1, §2, §3, §4, §5, §6

[4] = test system: Acinetobacter baumannii DSM30007; assay: Antibacterial activity (MIC, curve fitting); assay type: cell-based; conditions: for MIC, A. baumannii: Table S12, ± standard error of the mean; for MIC, A.b.: Table 2, Acinetobacter baumannii DSM30007, 18 h, 37 °C
Description: as §1, §2, §3, §4, §5, §6

[5] = test system: Klebsiella pneumoniae DSM111678; assay: Antibacterial activity (MIC, curve fitting); assay type: cell-based; conditions: for MIC, K. pneumoniae: Table S12, ± standard error of the mean; for MIC, K.p.: Table 2, Klebsiella pneumoniae DSM111678, 18 h, 37 °C
Description: as §1, §2, §3, §4, §5, §6

[6] = test system: methicillin-resistant Staphylococcus aureus DSM 11822; assay: Antibacterial activity (MIC, curve fitting); assay type: cell-based
Description: as §1, §2, §3, §4, §5, §6

[7] = test system: Vero E6 African green monkey kidney cells; assay: Antiproliferative activity in non-tumour reference cell line; assay type: cell-based; conditions: for IC50: Vero E6 non-tumour reference cell line, SD in parentheses, n = 3
Description: (§7) The antiproliferative potential of the gold–NHC complexes was determined in A549 lung carcinoma cells, MDA-MB-231 breast cancer cells, MCF-7 breast adenocarcinoma cells, and HT-29 colon carcinoma cells (Table 1). Vero E6 African green monkey kidney cells served as a reference cell line to check for possible tumour selectivity. Auranofin (AF) was used as an established reference drug.[15,17] […]
(§8) S2.2. Cytotoxicity and Anticancer Studies
(§9) Cell culture and cytotoxicity
(§10) Cell lines were sourced from DSMZ (German Collection of Microorganisms and Cell Cultures GmbH) and maintained through standard procedures in Dulbecco's Modified Eagle Medium (DMEM) supplemented with 10% fetal calf serum and 50 mg/L gentamycin. Antiproliferative effects were assessed using a well-established assay protocol. In brief, 100 μL volumes of A549 cells (13,243 cells per mL), HT-29 cells (14,657 cells per mL), MDA-MB-231 cells (6,613 cells per mL), or MCF-7 cells (6,917 cells per mL) were transferred into the wells of 96-well plates and incubated at 37°C/5% CO2 for 72 […]
(§11) Freshly prepared stock solutions of the compounds in DMSO were diluted with the respective cell culture medium to achieve graded concentrations (final concentration of DMSO: 0.1% v/v). After 72 hours (A549, HT-29) or 96 hours (MCF-7, MDA-MB-231) of exposure, the cell biomass was assessed through crystal violet staining, and the IC50 value was determined as the concentration causing 50% inhibition of cell proliferation compared to an untreated control. Results were calculated as the mean values of three independent experiments.

TrxR from E. coli = TrxR from E. coli (Escherichia coli, UniProt P0A9P4); assay: Inhibition of isolated bacterial TrxR, DTNB-based assay; assay type: biochemical; parameters: purchased Sigma-Aldrich; conditions: for TrxR activity, % of control: compounds at 0.5 µM, n = 2, Table S13; for IC50: isolated E. coli TrxR, DTNB assay, ± standard deviation, n = 3
TrxR from E. coli, sequence (P0A9P4 2-321): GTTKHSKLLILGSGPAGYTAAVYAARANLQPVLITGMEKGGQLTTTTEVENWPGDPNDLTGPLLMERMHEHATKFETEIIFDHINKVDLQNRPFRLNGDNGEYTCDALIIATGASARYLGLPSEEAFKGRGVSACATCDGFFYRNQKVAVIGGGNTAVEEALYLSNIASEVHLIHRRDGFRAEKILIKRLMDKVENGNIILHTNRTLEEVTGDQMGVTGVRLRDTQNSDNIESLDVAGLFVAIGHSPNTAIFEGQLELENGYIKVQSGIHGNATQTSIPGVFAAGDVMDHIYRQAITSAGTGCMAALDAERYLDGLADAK
Description: The inhibition of isolated TrxR from E. coli was determined for the selected monocarbene gold(I/III) complexes 2a–c and 4b–c using a DTNB-based assay (Table 3). […] The inhibition of bacterial TrxR for compound 2a was investigated in our previous report (Table 3).
S2.3. Inhibition of bacterial TrxR from E. coli
The TrxR (E. coli) inhibition assay was performed according to previously published procedures.[8] The assay is partly based on the procedure developed by Lu et al[9] and makes use of the reduction of DTNB (5,5′-dithiobis-(2-nitrobenzoic acid)). Solutions of E. coli TrxR (10.1 U/mL) and E. coli thioredoxin (Trx) (312 μg/mL) (both purchased from Sigma-Aldrich) were prepared in distilled water. Stock solutions of the test compounds (2 mM) were prepared in DMSO and serially diluted with TE buffer (Tris-HCl 50 mM, EDTA 1 mM, pH 7.5). 20 μL of these solutions or TE buffer without the test compounds (positive control) were mixed with the TrxR solution (10 μL), the Trx solution (10 μL) and 100 µl of NADPH (200 μM) in TE buffer in a well on a 96-well plate. As a blank control, 200 μM NADPH in TE buffer (100 μL) mixed with a DMSO / buffer mixture (40 μL) was used (final concentrations of DMSO: 0.5% v/v). The plate was incubated for 75 min at 25°C with moderate shaking. After incubation, 100 μL of a reaction mixture (TE buffer containing 200 μM NADPH and 5 mM DTNB) was added to each well to initiate the reaction. After thorough mixing, the formation of 5-TNB was monitored by a microplate reader at 405 nm in 35 s intervals (10 measurements). The values were corrected by subtraction of the blank solution absorption values. The increase in concentration of 5-TNB followed a linear trend (r2≥ 0.990) and the enzymatic activities were calculated as the gradients (increase in absorbance per second) thereof. […]
for each test compound, where the highest test compound concentration was used and the enzyme solution was replaced by TE buffer. The inhibition is presented as the mean IC50 values and standard deviations obtained in three independent experiments.
Table S13. Activity of TrxR from E. coli in presence of compounds at 0.5 µM (n = 2, n.d.= not

[8] = test system: HT-29 colon carcinoma cells; assay: Antiproliferative activity, crystal violet assay; assay type: cell-based; conditions: 72 h exposure, SD in parentheses, n = 3
Description: as §7, §8, §9, §10, §11

[9] = test system: A549 lung carcinoma cells; assay: Antiproliferative activity, crystal violet assay; assay type: cell-based; conditions: 72 h exposure, SD in parentheses, n = 3
Description: as §7, §8, §9, §10, §11

[10] = test system: MCF-7 breast adenocarcinoma cells; assay: Antiproliferative activity, crystal violet assay; assay type: cell-based; conditions: 96 h exposure, SD in parentheses, n = 3
Description: as §7, §8, §9, §10, §11

[11] = test system: MDA-MB-231 breast cancer cells; assay: Antiproliferative activity, crystal violet assay; assay type: cell-based; conditions: 96 h exposure, SD in parentheses, n = 3
Description: as §7, §8, §9, §10, §11

[12] = Table S12, ± standard error of the mean
[13] = Table 2, MRSA DSM 11822, 18 h, 37 °C

| Structure (SMILES) | MIC, E. faecium [1] | MIC, P. aeruginosa [2] | MIC, E. coli [3] | MIC, A. baumannii [4] | MIC, K. pneumoniae [5] | MIC, MRSA [6, 12] | IC50 [7] | Tumour selectivity: tumour cell lines in comparison to Vero E6 ([7]; comparison of IC50 in tumour cell lines and non-tumour Vero E6) | TrxR activity, % of control (TrxR from E. coli) | IC50 [8] | IC50 [9] | IC50 [10] | IC50 [11] | MIC, E.f. [1] | MIC, P.a. [2] | MIC, E.c. [3] | MIC, A.b. [4] | MIC, K.p. [5] | MIC, MRSA [6, 13] | IC50 (TrxR from E. coli) |
| --- | --- | --- | --- | --- | --- | --- | --- | --- | --- | --- | --- | --- | --- | --- | --- | --- | --- | --- | --- | --- |
| CCOC(=O)c1cn(C)[c]([Au-][c]2n(C)cc(C(=O)OCC)[n+]2C)[n+]1C.F[B-](F)(F)F [3c] | > 100 µM | > 100 µM | > 100 µM | > 100 µM | > 100 µM | 25.79 ± 0 µM | 31.5 µM | clear preference for the tumour cell lines | 115 % of control | 5.78 µM | 1.07 µM | 4.64 µM | 2.51 µM | – | – | – | – | – | – | – |
| COC(=O)c1cn(C)[c]([Au-][Cl])[n+]1C [2b] | 10.35 ± 0 µM | > 100 µM | 41.39 ± 0 µM | 10.35 ± 0 µM | 41.39 ± 0 µM | 10.35 ± 0 µM | – | – | 8.9 % of control | 19.8 µM | 22.7 µM | 23.8 µM | 12.8 µM | 10 µM and 10 ± 0 µM | >100 µM | 41 µM and 41 ± 0 µM | 10 µM and 10 ± 0 µM | 41 µM and 41 ± 0 µM | 10 µM and 10 ± 0 µM | 0.293 ± 0.163 µM |
| CC(=O)OC[C@H]1O[C@@H]([S-])[C@H](OC(C)=O)[C@@H](OC(C)=O)[C@@H]1OC(C)=O.CCP(CC)CC.[Au+] [AF, auranofin, reference compound] | 0.3 µM | > 100 µM | 46 µM | 55 µM | 81 µM | 0.4 µM | 2.4 µM | – | – | 4.32 µM | 3.53 µM | 1.89 µM | 0.8 µM | 0.3 µM | >100 µM | 46 µM | 55 µM | 81 µM | 0.4 µM | 0.21 ± 0.03 µM |
| Cn1cc(C(=O)O)[n+](C)[c]1[Au-][c]1n(C)cc(C(=O)O)[n+]1C.[Cl-] [3a] | > 100 µM | 62.4 ± 0 µM | 62.4 ± 0 µM | 31.2 ± 4.90 µM | 62.4 ± 0 µM | > 100 µM | – | – | – | – | – | – | – | – | – | – | – | – | – | – |
